Laboratory results from PubChem BioAssay AID1996.
≈ marks a conversion by molar mass, not a printed value.

Conditions: buffer; pH 7.4; 200.0 µM

SMILES	solubility kinetic
c1ccc(N2CCN(Cc3cnc(N4CCOCC4)s3)CC2)cc1	> 51.7 µg/mL
O=S(=O)(c1ccc2c(c1)CCCN2)N1CCCCC1	> 42.1 µg/mL
CCc1nc2cc3sc(CC)nc3cc2s1	0.6 µg/mL (≈ 2.42 µM)
CC(OC(=O)C1=COCCO1)C(=O)Nc1ccccc1C#N (stereo not given)	38.8 µg/mL (≈ 128 µM)
COC(=O)c1c(C)[nH]c(C(=O)CC#N)c1C	27.2 µg/mL (≈ 124 µM)
Cl.O=C(Cc1ccccc1)NCCN1CCCC1	> 40.3 µg/mL
CC(CN1CCOCC1)OC(=O)c1ccc(C(C)(C)C)cc1.Cl (stereo not given)	18.2 µg/mL
CCCC(=O)Nc1ccc(C2C(=O)c3ccccc3C2=O)cc1	> 46.1 µg/mL
COC(=O)[C@H](Cc1ccccc1)NC(=O)Nc1ccc(OC)cc1	47 µg/mL (≈ 143 µM)
COC(=O)C1=C(N)Oc2cc(C)[nH]c(=O)c2C1c1ccc(Cl)cc1 (stereo not given)	1.7 µg/mL (≈ 4.9 µM)
Cn1cc(CCC(=O)NC2CC2)c2ccccc21	> 36.3 µg/mL
Cc1ccc(NC(=O)c2cc3cc(OC(F)(F)F)ccc3[nH]2)cc1	< 0.4 µg/mL
CC(C)C(NC(=O)C1CCCCC1)C(=O)NC1CCCC(C)C1C (stereo not given)	3.9 µg/mL (≈ 11.6 µM)
O=C(Cn1cc(/C=C\[N+](=O)[O-])c2ccccc21)Nc1ccccc1	2.2 µg/mL (≈ 6.85 µM)
CC1(c2ccccc2Cl)NC(=O)N(CC(=O)Nc2ccc(N3CCOCC3)cc2)C1=O (stereo not given)	> 66.4 µg/mL
CCOc1ccc2nc(NC(=O)C3CCCO3)sc2c1 (stereo not given)	> 43.9 µg/mL
COCCNc1nc2nonc2nc1N1C[C@H]2CC[C@H]1C2	> 43.5 µg/mL
Cc1ccccc1NC(=O)COC(=O)CCSc1ccccc1	13.1 µg/mL (≈ 39.8 µM)
COc1c(C)cccc1C(=O)NCc1ccc2c(c1)OCO2	> 44.9 µg/mL
COc1ccc(CC(=O)Oc2ccc(C#N)cc2)cc1	> 40.1 µg/mL

SMILES	solubility kinetic
CC1CCCN(C(=O)C2CCN(S(=O)(=O)c3ccccc3)CC2)C1 (stereo not given)	> 52.6 µg/mL
S=C(NCc1ccc(Cl)cc1)NN1CCOCC1	> 42.9 µg/mL
O=C(COc1ccc2ccc(=O)oc2c1)NCc1ccccn1	> 46.5 µg/mL
Cc1c(C)n(Cc2ccccc2)c2ncnc(NCCCO)c12	< 0.2 µg/mL
Cc1ccccc1NC(=S)NC(=O)Cc1ccc(Cl)cc1	0.5 µg/mL (≈ 1.57 µM)
COC(=O)c1ccc(NC(=O)c2ccc3nsnc3c2)cc1	1.3 µg/mL (≈ 4.15 µM)
Cc1ccc(S(=O)(=O)N2CCCCC2)cc1NC(=O)c1cc(F)c(F)c(F)c1F	4.7 µg/mL (≈ 10.9 µM)
Cc1ccc(S(=O)(=O)N2CCN(c3cccc(C)c3)CC2)cc1	< 0.4 µg/mL
CCCCCCCN1C2=NCCN2c2ccccc21.Cl	> 44.1 µg/mL
Oc1ccc(N2Cc3ccccc3C2)cc1	9.9 µg/mL (≈ 46.9 µM)
Cn1c(O)c(C=NCCCCCCCCCCC(=O)O)c(=O)n(C)c1=O	> 55.1 µg/mL
C=CCn1c(O)c(Cc2ccc(OCC)cc2)c(=O)[nH]c1=O	43.7 µg/mL (≈ 145 µM)
Cc1cc(C)cc(NC(=O)c2ccc([N+](=O)[O-])o2)c1	8.3 µg/mL (≈ 31.9 µM)
CSC1=N/C(=C/c2cccnc2)C(=O)N1Cc1ccc(Cl)cc1	1.1 µg/mL (≈ 3.2 µM)
COc1ccc2nc(NC(=O)c3c(C)noc3C)sc2c1	> 45.5 µg/mL
O=c1o[nH]c(-c2ccccc2)c1-c1ccccc1	35 µg/mL (≈ 148 µM)
O=C(OCC(=O)N1CCCc2ccccc21)c1ccccc1OC(F)F	29.7 µg/mL (≈ 82.2 µM)
Cc1ccc(NC(=O)Nc2ccccc2)nc1	2.6 µg/mL (≈ 11.4 µM)
Cc1ccc(NC(=O)COC(=O)C2CC2)cc1Cl	35.6 µg/mL (≈ 133 µM)
CCn1c(O)c(C=NCCN2CCOCC2)c(=O)n(CC)c1=S	> 51.1 µg/mL

SMILES	solubility kinetic
CCCNC(=O)N1CCN(C(c2ccccc2)c2ccccc2)CC1	3.9 µg/mL (≈ 11.6 µM)
COc1ccc(/C(C)=N/NC2=NCCN2)cc1Cl	> 40 µg/mL
Cn1cccc1C(=O)OCC(=O)NCCc1ccc(S(N)(=O)=O)cc1	> 54.8 µg/mL
CCCCOc1ccc(C(=O)OCC(=O)N2CCCCCC2)cc1	8.4 µg/mL (≈ 25.2 µM)
O=c1c(Cc2ccc(F)cc2)c(O)ccn1CCc1ccccn1	> 48.7 µg/mL
Cc1cc(NC(=S)Nc2cccnc2)ccc1Br	40.7 µg/mL (≈ 126 µM)
O=C(C1CC(=O)N(c2ccccc2F)C1)N1CCOCC1 (stereo not given)	> 43.8 µg/mL
CC1CC(C)CN(C(=O)CCNC(=O)c2ccccc2Cl)C1 (stereo not given)	47.7 µg/mL (≈ 148 µM)
O=C(NC1CCS(=O)(=O)C1)c1cc(-c2ccccc2)nc2ccccc12 (stereo not given)	> 55 µg/mL
O=CN1CCN(C(=O)c2cccc3c2-c2ccccc2C3=O)CC1	> 48.1 µg/mL
Cc1cc(C)cc(NC(=O)NCc2ccccn2)c1	> 38.3 µg/mL
CC(C)(C)NC(=O)COc1ccc(S(=O)(=O)N2CCCC2)cc1	> 51.1 µg/mL
CN(C(=O)C(Cl)Cl)C1CC2C=CC1C2 (stereo not given)	30.7 µg/mL (≈ 131 µM)
Cl.OC(CNCc1ccncc1)c1ccccc1 (stereo not given)	> 39.7 µg/mL
Cn1c(SCc2ccccc2)nc(N)c(N=O)c1=O	13.6 µg/mL (≈ 49.2 µM)
Cn1cnnc1SCC(=O)NCCC1=CCCCC1	> 42.1 µg/mL
COc1ccc(Cl)cc1N=Cc1c(O)n(C)c(=O)n(C)c1=O	2 µg/mL (≈ 6.18 µM)
CCOC(=O)C1=C(COC(=O)c2ccc([N+](=O)[O-])s2)NC(=O)NC1C (stereo not given)	> 55.4 µg/mL
Cc1nc(SCc2cccc(C(=O)O)c2)nc2c1CCCC2	> 47.2 µg/mL
COc1cccc(NC(=O)c2cc3ccccc3oc2=O)c1	< 0.6 µg/mL
